Measured values: patent US5064953A, “Intermediates cephalosporin derivatives” (Mochida Pharmaceutical Co., Ltd., priority 1983, dated 1991)
Converted amounts (≈) assume the structure as drawn.

Legend:
[1] = system: Staphylococcus 242 (Methicillin-resistant strain); assay: Protection ability against systemic infection; assay type: in vivo; details: iv, 168 h, ICR mice, intraperitoneal infection, compound intravenously 1 hour after infection, survival at 1 week
Experimental: (§1) Protection ability against systemic infection was determined as follows. An aqueous suspension of test bacteria was intraperitoneally injected into groups of 10 four week old ICR mice. One hour after the infection, test compounds were intravenously administered. The number of surviving mice was counted 1 week after injection to determine the dose at which 50% of the test animals were alive (ED50 :mg/kg).
*Methicillin-resistant strain

[2] = system: Klebsiella pneumoniae IF03317; assay: Protection ability against systemic infection; assay type: in vivo; details: IF03317, iv, 168 h, ICR mice, intraperitoneal infection, compound intravenously 1 hour after infection, survival at 1 week
Experimental: as §1

Escherichia coli 67 [3] = assay: Protection ability against systemic infection; assay type: in vivo; details: Escherichia coli, 67, iv, 168 h; ICR mice, intraperitoneal infection, compound intravenously 1 hour after infection, survival at 1 week
Experimental: as §1

[4] = system: Pseudomonas aeruginosa IF03445; assay: Protection ability against systemic infection; assay type: in vivo; details: IF03445, iv, 168 h, ICR mice, intraperitoneal infection, compound intravenously 1 hour after infection, survival at 1 week
Experimental: as §1

[5] = system: Serratia marcescens IF03759; assay: Antibacterial activity in vitro, agar plate dilution method (MIC); assay type: cell-based; details: 10^6 cells/ml, Mueller Hinton agar, 37° C., 20 hours
Experimental: (§2) Antibacterial activity in vitro was determined in accordance with the agar plate dilution method. A platinum loop each of test bacteria (10^6 cells/ml), cultured in Mueller Hinton broth, was inoculated on Mueller Hinton agar plates which contained test compounds at various concentrations. After cultivating at 37° C. for 20 hours, the minimum inhibitory concentration (MIC μg/ml) was determined.

[6] = system: Klebsiella pneumoniae IF03317; assay: as above; assay type: cell-based; details: 10^6 cells/ml, Mueller Hinton agar, 37° C., 20 hours
Experimental: as §2

Proteus morganii IF03848 = assay: as above; assay type: cell-based; details: Morganella morganii, 10^6 cells/ml, Mueller Hinton agar, 37° C., 20 hours
Experimental: as §2

Escherichia coli 67 [7] = assay: as above; assay type: cell-based; details: 10^6 cells/ml, Mueller Hinton agar, 37° C., 20 hours
Experimental: as §2

[8] = system: Pseudomonas aeruginosa IF03445; assay: as above; assay type: cell-based; details: 10^6 cells/ml, Mueller Hinton agar, 37° C., 20 hours
Experimental: as §2

[9] = system: Staphylococcus aureus Smith; assay: as above; assay type: cell-based; details: 10^6 cells/ml, Mueller Hinton agar, 37° C., 20 hours
Experimental: as §2

[10] = LD50 determined in accordance with the Probit method; details: in vivo, iv
Experimental: Next, LD50 of representative examples of the compounds of the present invention is shown in Table 3 wherein LD50 was determined in accordance with the Probit method.

Row | Structure (SMILES) | MIC [5] | MIC [6] | MIC (Proteus morganii IF03848) | MIC (Escherichia coli 67 [7]) | MIC [8] | MIC [9] | ED50 [1] | ED50 [2] | ED50 (Escherichia coli 67 [3]) | ED50 [4] | LD50 [10]
1 | Cc1nnc(SCC2=C(C(=O)O)N3C(=O)[C@@H](NC(=O)Cn4cnnn4)[C@H]3SC2)s1 [CEZ, reference compound] |  |  |  |  |  |  | 74 mg/kg |  |  |  | 
2 | CO/N=C(\C(=O)N[C@@H]1C(=O)N2C(C(=O)O)=C(CSc3cc(C(=O)O)nc4ncnn34)CS[C@H]12)c1csc(N)n1 [Compound 6, (6R,7R)-7-[2-(2-amino-4-thiazolyl)-2-(Z-methoxyimino)acetamido]-3-[(5-carboxy-s-triazolo[1,5-a]pyrimidin-7-yl)thiomethyl]-8-oxo-5-thia-1-azabicyclo [4.2.0]oct-2-ene-2-carboxylic acid] | 0.2 µg/mL (≈ 0.338 µM) | < 0.05 µg/mL | 0.2 µg/mL (≈ 0.338 µM) | < 0.05 µg/mL | 6.25 µg/mL (≈ 10.6 µM) | 1.57 µg/mL (≈ 2.65 µM) |  | 0.1 mg/kg | 0.8 mg/kg | 230 mg/kg | > 1000 mg/kg
3 | Cc1cc(SCC2=C(C(=O)O)N3C(=O)[C@@H](NC(=O)/C(=N\OC(=O)c4cccs4)c4csc(N)n4)[C@H]3SC2)n2nc(C(=O)O)nc2n1 [Compound 10, (6R,7R)-7-[2-(2-amino-4-thiazolyl)-2-[Z-(2-thiophenecarbonyl)oxyimino]acetamido]-3-[(2-carboxy-5-methyl-s-triazolo[1,5-a]pyrimidin-7-yl)-thiomethyl]-8-oxo-5-thia-1-azabicyclo[4.2.0]-oct-2-ene-2-carboxylic acid] | 0.1 µg/mL (≈ 0.143 µM) | < 0.05 µg/mL | 0.39 µg/mL (≈ 0.556 µM) | 0.1 µg/mL (≈ 0.143 µM) | 50 µg/mL (≈ 71.3 µM) | 0.39 µg/mL (≈ 0.556 µM) | 8.01 mg/kg |  |  |  | > 1000 mg/kg
4 | CC(=O)Oc1cc(C(=O)O/N=C(\C(=O)N[C@@H]2C(=O)N3C(C(=O)O)=C(CSc4cc(C)nc5nc(C(=O)O)nn45)CS[C@H]23)c2csc(N)n2)cc(OC(C)=O)c1OC(C)=O [Compound 13] | < 0.05 µg/mL | < 0.05 µg/mL | 0.2 µg/mL (≈ 0.23 µM) | 0.05 µg/mL (≈ 0.0575 µM) | 1.57 µg/mL (≈ 1.8 µM) | 0.78 µg/mL (≈ 0.897 µM) |  |  |  |  | 
5 | CO/N=C(\C(=O)N[C@@H]1C(=O)N2C(C(=O)O)=C(CSc3cc(C)nc4nc(C(=O)O)nn34)CS[C@H]12)c1csc(N)n1 [Compound 2, (6R,7R)-7-[2-(2-amino-4-thiazolyl)-2-(Z-methoxyimino)acetamido]-3-[(2-carboxy-5-methyl-s-triazolo[1,5-a]pyrimidin-7-yl)thiomethyl]-8-oxo-5-thia-1-azabicyclo[4.2.0]oct-2-ene-2-carboxylic acid] | < 0.05 µg/mL | < 0.05 µg/mL | 0.2 µg/mL (≈ 0.33 µM) | < 0.05 µg/mL | 12.5 µg/mL (≈ 20.6 µM) | 1.57 µg/mL (≈ 2.59 µM) |  | 0.1 mg/kg | 0.8 mg/kg | 360 mg/kg | > 1000 mg/kg
6 | CO/N=C(\C(=O)N[C@@H]1C(=O)N2C(C(=O)O)=C(CSc3cc(CC(=O)O)nc4ncnn34)CS[C@H]12)c1csc(N)n1 [Compound 5, (6R,7R)-7-[2-(2-amino-4-thiazolyl)-2-(Z-methoxyimino)acetamido]-3-[(5-carboxymethyl-s-triazolo[1,5-a]pyrimidin-7-yl)thiomethyl]-8-oxo-5-thia-1-azabicyclo[4.2.0]oct-2-ene-2-carboxylic acid] | 0.2 µg/mL (≈ 0.33 µM) | < 0.05 µg/mL | 0.78 µg/mL (≈ 1.29 µM) | 0.1 µg/mL (≈ 0.165 µM) | > 100 µg/mL | 3.13 µg/mL (≈ 5.17 µM) |  |  |  |  | 
7 | CO/N=C(\C(=O)N[C@@H]1C(=O)N2C(C(=O)O)=C(CSc3cc(C)nc4ncnn34)CS[C@H]12)c1csc(N)n1 [Compound 1, (6R,7R)-7-[2-(2-amino-4-thiazolyl)-2-(Z-methoxyimino)acetamido]-3-[(5-methyl-s-triazolo[1,5-a]pyrimidin-7-yl)thiomethyl]-8-oxo-5-thia-1-azabicyclo[4.2.0] oct-2-ene-2-carboxylic acid] | 0.2 µg/mL (≈ 0.356 µM) | < 0.05 µg/mL | 0.78 µg/mL (≈ 1.39 µM) | < 0.05 µg/mL | 50 µg/mL (≈ 89 µM) | 1.57 µg/mL (≈ 2.8 µM) |  | 0.1 mg/kg | 0.7 mg/kg | 780 mg/kg | > 1000 mg/kg
8 | Cc1cc(SCC2=C(C(=O)O)N3C(=O)[C@@H](NC(=O)/C(=N\O)c4csc(N)n4)[C@H]3SC2)n2nc(C(=O)O)nc2n1 [Compound 8, (6R,7R)-7-[2-(2-amino-4-thiazolyl)-2-(Z-hydroxyimino)acetamido]3-[(2-carboxy-5-methyl-s-triazolo[1,5-a]pyrimidin-7-yl)thiomethyl]-8-oxo-5-thia-1-azabicyclo[4.2.0]oct-2-ene-2-carboxylic acid] | 0.2 µg/mL (≈ 0.338 µM) | < 0.05 µg/mL | 0.39 µg/mL (≈ 0.659 µM) | 0.2 µg/mL (≈ 0.338 µM) | > 100 µg/mL | 0.78 µg/mL (≈ 1.32 µM) | 3.55 mg/kg | 7.68 mg/kg |  |  | > 1000 mg/kg
9 | Cc1cc(SCC2=C(C(=O)O)N3C(=O)[C@@H](NC(=O)/C(=N\OC(=O)c4ccco4)c4csc(N)n4)[C@H]3SC2)n2nc(C(=O)O)nc2n1 [Compound 9, (6R,7R)-7-[2-(2-amino-4-thiazolyl)-2-[Z-(2-furancarbonyl)oxyimino]acetamido]-3-[(2-carboxy-5-methyl-s-triazolo[1,5-a]pyrimidin-7-yl)thiomethyl]-8-oxo-5-thia-1-azabicyclo[4.2.0]oct-2-ene-2-carboxylic acid] | < 0.05 µg/mL | < 0.05 µg/mL | 0.2 µg/mL (≈ 0.292 µM) | < 0.05 µg/mL | 100 µg/mL (≈ 146 µM) | 0.39 µg/mL (≈ 0.569 µM) | 2.11 mg/kg | 7.68 mg/kg |  |  | > 1000 mg/kg
10 | CO/N=C(\C(=O)N[C@@H]1C(=O)N2C(C(=O)O)=C(CSc3c(C(=O)O)cnc4ncnn34)CS[C@H]12)c1csc(N)n1 [Compound 3, (6R,7R)-7-[2-(2-amino-4-thiazolyl)-2-(Z-methoxyimino)acetamido]-3-[(6-carboxy-s-triazolo[1,5-a]pyrimidin-7-yl)-thiomethyl]-8-oxo-5-thia-1-azabicyclo [4.2.0]oct-2-ene-2-carboxylic acid] | 0.78 µg/mL (≈ 1.32 µM) | < 0.05 µg/mL | 1.57 µg/mL (≈ 2.65 µM) | 0.39 µg/mL (≈ 0.659 µM) | > 100 µg/mL | 12.5 µg/mL (≈ 21.1 µM) |  |  |  |  | 

The next lines start with results.

Row | MIC [5] | MIC [6] | MIC (Proteus morganii IF03848) | MIC (Escherichia coli 67 [7]) | MIC [8] | MIC [9] | Structure (SMILES) | ED50 [1] | ED50 [2] | ED50 (Escherichia coli 67 [3]) | ED50 [4] | LD50 [10]
11 | 0.39 µg/mL (≈ 0.675 µM) | < 0.05 µg/mL | 3.13 µg/mL (≈ 5.42 µM) | 0.1 µg/mL (≈ 0.173 µM) | 100 µg/mL (≈ 173 µM) | 1.57 µg/mL (≈ 2.72 µM) | CO/N=C(\C(=O)N[C@@H]1C(=O)N2C(C(=O)O)=C(CSc3cc(OC)nc4ncnn34)CS[C@H]12)c1csc(N)n1 [Compound 16, (6R,7R)-7-[2-(2-amino-4-thiazolyl)-2-(Z-methoxyimino)acetamido]-3-[(5-methoxy-s-triazolo[1,5-a]pyrimidin-7-yl)thiomethyl]-8-oxo-5-thia-1-azabicyclo[4.2.0]oct-2-ene-2-carboxylic acid] |  |  |  |  | 
12 | 0.2 µg/mL (≈ 0.336 µM) | < 0.05 µg/mL | 0.39 µg/mL (≈ 0.656 µM) | < 0.05 µg/mL | 50 µg/mL (≈ 84.1 µM) | 0.78 µg/mL (≈ 1.31 µM) | CO/N=C(\C(=O)N[C@@H]1C(=O)N2C(C(=O)O)=C(CSc3nn4c(=O)cc(C)nc4s3)CS[C@H]12)c1csc(N)n1 [Compound 24, (6R,7R)-7-[2-(2-amino-4-thiazolyl)-2-(Z-methoxyimino)acetamido]-3-[(7-methyl-5oxo-5H-1,3,4-thiadiazolo[3,2-a]pyrimidin-2-yl)thiomethyl]-8-oxo-5-thia-1-azabicyclo[4.2.0]oct-2-ene-2-carboxylic acid] |  |  |  |  | 
13 | 0.39 µg/mL (≈ 0.693 µM) | < 0.05 µg/mL | 0.78 µg/mL (≈ 1.39 µM) | 0.1 µg/mL (≈ 0.178 µM) | 50 µg/mL (≈ 88.9 µM) | 1.57 µg/mL (≈ 2.79 µM) | CO/N=C(\C(=O)N[C@@H]1C(=O)N2C(C(=O)O)=C(CSc3nc(N)cc4ncnn34)CS[C@H]12)c1csc(N)n1 [Compound 22, (6R,7R)-7-[2-(2-amino-4-thiazolyl)-2-(Z-methoxyimino)acetamido]-3-[(7-amino-s-triazolo[1,5-c]pyrimidin-5-yl)thiomethyl]-8 oxo-5-thia-1-azabicyclo[4.2.0]oct-2-ene-2-carboxylic acid] |  |  |  |  | 
14 | < 0.05 µg/mL | < 0.05 µg/mL | 0.2 µg/mL (≈ 0.329 µM) | < 0.05 µg/mL | 6.25 µg/mL (≈ 10.3 µM) | 6.25 µg/mL (≈ 10.3 µM) | CO/N=C(\C(=O)N[C@@H]1C(=O)N2C(C(=O)O)=C(CSc3nc4ncc(C(=O)O)c(O)n4n3)CS[C@H]12)c1csc(N)n1 [Compound 19, (6R,7R)-7-[2-(2-amino-4-thiazolyl)-2-(Z-methoxyimino)acetamido]-3-[(6-carboxy-7-hydroxy-s-triazolo[1,5-a]pyrimidin-2-yl)thiomethyl]-8-oxo-5-thia-1-azabicyclo[4.2.0]oct-2-ene-2-carboxylic acid] |  |  |  |  | 
15 | 0.2 µg/mL (≈ 0.347 µM) | < 0.05 µg/mL | 0.39 µg/mL (≈ 0.676 µM) | 0.1 µg/mL (≈ 0.173 µM) | 50 µg/mL (≈ 86.7 µM) | 1.57 µg/mL (≈ 2.72 µM) | CO/N=C(\C(=O)N[C@@H]1C(=O)N2C(C(=O)O)=C(CSc3cc(C)nc4nc(N)nn34)CS[C@H]12)c1csc(N)n1 [Compound 17, (6R,7R)-7-[2-(2-amino-4-thiazolyl)-2-(Z-methoxyimino)acetamido]-3-[(2-amino-5-methyl-s-triazolo[1,5-a]pyrimidin-7-yl)thiomethyl]-8-oxo-5-thia-1-azabicyclo[4.2.0]oct-2-ene-2-carboxylic acid] |  |  |  |  | 
